In ChEMBL document CHEMBL1201862, “PubChem BioAssay data set” (2004):
Activity calls are given as the source filed them.

biological target: Cytochrome P450 3A4 (Homo sapiens, UniProt P08684); settings: not given;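 further: CYP3A4 tested as one member of a cytochrome P450 panel screen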
Sequence (P08684 whole entry): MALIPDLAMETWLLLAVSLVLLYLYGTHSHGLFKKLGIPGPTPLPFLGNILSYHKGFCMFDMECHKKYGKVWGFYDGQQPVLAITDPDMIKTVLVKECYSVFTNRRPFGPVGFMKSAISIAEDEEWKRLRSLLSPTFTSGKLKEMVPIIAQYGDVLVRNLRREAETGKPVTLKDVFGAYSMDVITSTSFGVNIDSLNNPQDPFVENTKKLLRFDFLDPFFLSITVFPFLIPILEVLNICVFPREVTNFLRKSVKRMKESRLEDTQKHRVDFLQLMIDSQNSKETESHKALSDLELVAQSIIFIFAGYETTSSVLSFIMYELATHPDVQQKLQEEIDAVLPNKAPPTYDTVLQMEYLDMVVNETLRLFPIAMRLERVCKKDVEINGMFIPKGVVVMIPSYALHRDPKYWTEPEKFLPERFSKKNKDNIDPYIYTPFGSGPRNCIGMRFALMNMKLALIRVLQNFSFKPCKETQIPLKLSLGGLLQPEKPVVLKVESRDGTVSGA

Row | SMILES | AC50
1 | O=c1c(-c2ccccc2)nc2cnc(N3CCNCC3)nc2n1-c1ccccc1 | 20 µM (inconclusive)
2 | Cc1nc2cnc(Oc3ccccc3)nc2n(CCC#N)c1=O | 25.1 µM (inconclusive)
3 | Ic1ccccc1CN[C@@H]1C2CCN(CC2)[C@H]1C(c1ccccc1)c1ccccc1 | 20 µM (inconclusive)
4 | CNc1oc(-c2ccc(Cl)cc2)nc1C#N | 14.1 µM (inconclusive)
5 | O=S(=O)(NC(=Nc1ccc(F)cc1F)c1ccc(Cl)cc1)c1ccccc1 | 2.82 µM (inconclusive)
6 | COc1ccc(Oc2ncc3nc(-c4ccc(OC)cc4)c(=O)n(C)c3n2)cc1 | 3.98 µM (inconclusive)
7 | COc1ccc(Nc2nc(N)nc(CSc3n[nH]c(-c4ccccc4)n3)n2)cc1 | 3.98 µM (inconclusive)
8 | Cc1nc2ccccc2c(=O)n1NC(=O)c1ccccc1Cl | 22.4 µM (inconclusive)
9 | O=C(Cc1ccccc1)N/N=C/c1cc(Br)c(Br)o1 | 28.2 µM (inconclusive)
10 | O=C(O)c1c(Cl)c(Cl)c(Cl)c(Cl)c1C(=O)Nc1ccc2cn[nH]c2c1 | 3.98 µM (inconclusive)

biological target: Cytochrome P450 2C9 (Homo sapiens, UniProt P11712); settings: not given
Sequence (P11712 whole entry): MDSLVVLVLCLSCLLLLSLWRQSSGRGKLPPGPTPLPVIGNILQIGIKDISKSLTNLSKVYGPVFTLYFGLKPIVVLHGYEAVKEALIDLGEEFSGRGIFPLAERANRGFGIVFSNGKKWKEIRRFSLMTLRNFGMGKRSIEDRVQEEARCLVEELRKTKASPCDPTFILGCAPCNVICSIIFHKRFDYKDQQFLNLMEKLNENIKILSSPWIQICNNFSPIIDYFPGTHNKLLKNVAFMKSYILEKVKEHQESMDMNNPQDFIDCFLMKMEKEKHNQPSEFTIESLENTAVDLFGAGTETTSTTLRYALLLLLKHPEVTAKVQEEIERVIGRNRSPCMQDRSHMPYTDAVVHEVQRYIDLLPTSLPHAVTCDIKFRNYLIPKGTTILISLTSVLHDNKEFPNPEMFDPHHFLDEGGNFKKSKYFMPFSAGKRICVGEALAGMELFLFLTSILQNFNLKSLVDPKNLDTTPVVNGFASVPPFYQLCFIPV

Row | SMILES | AC50
11 | CNc1oc(-c2ccc(Cl)cc2)nc1C#N | 8.91 µM (inconclusive)
12 | COc1ccc(Nc2nc(N)nc(CSc3n[nH]c(-c4ccccc4)n3)n2)cc1 | 12.6 µM (inconclusive)

biological target: Cytochrome P450 2D6 (Homo sapiens, UniProt P10635); settings: not given;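 further: CYP2D6 member of a cytochrome P450 panel assay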
Sequence (P10635 whole entry): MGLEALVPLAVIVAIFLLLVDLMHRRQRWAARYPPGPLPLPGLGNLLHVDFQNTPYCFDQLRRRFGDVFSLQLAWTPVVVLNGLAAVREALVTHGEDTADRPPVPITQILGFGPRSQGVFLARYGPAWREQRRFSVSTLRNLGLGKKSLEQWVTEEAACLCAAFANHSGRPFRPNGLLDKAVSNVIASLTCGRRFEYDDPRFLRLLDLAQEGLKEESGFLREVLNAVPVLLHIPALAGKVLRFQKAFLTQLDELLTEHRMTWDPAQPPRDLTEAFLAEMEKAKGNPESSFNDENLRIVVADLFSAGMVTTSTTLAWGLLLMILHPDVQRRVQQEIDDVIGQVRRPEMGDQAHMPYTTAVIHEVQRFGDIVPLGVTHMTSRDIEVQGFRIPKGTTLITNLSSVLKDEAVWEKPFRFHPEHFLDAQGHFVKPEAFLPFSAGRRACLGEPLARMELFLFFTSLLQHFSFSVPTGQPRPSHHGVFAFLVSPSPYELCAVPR

Row | SMILES | AC50
13 | CNc1oc(-c2ccc(Cl)cc2)nc1C#N | 22.4 µM (inconclusive)
14 | COc1ccc(Nc2nc(N)nc(CSc3n[nH]c(-c4ccccc4)n3)n2)cc1 | 3.55 µM (inconclusive)
15 | O=C(O)c1c(Cl)c(Cl)c(Cl)c(Cl)c1C(=O)Nc1ccc2cn[nH]c2c1 | 3.98 µM (inconclusive)

tested on: Streptococcus sp. 'group A'; experiment: growth inhibition of control SK(-) GAS strain, dose response, counter-screen for streptokinase expression inhibitor project, luminescence, kanamycin, BacTiterGlo, confirmation (AID 1900); format: functional, organism-based; settings: not given

Row | SMILES | EC50
16 | CSc1cccc(-c2nnc(NC(=O)c3cccc(N4C(=O)CCC4=O)c3)o2)c1 | 4.88 µM (active)
17 | CCOC(=O)c1cnn(-c2nc(-c3ccccc3F)cs2)c1C(F)(F)F | 17.9 µM (active)
18 | COC(=O)c1cc(-c2cccc(OC)c2)c2c(=O)[nH]c(=O)n(C)c2n1 | 6.29 µM (active)
19 | CC(C)Nc1nc(NC(C)C)nc(N(C)N)n1 | 32.9 µM (active)
20 | Cc1ccccc1C(=O)Nc1scc(-c2ccc(Br)cc2)c1C(=O)O | 3.46 µM (active)
21 | CCc1ccccc1NC(=O)NNS(=O)(=O)c1cc(C)ccc1C | > 150 µM (not active)

tested on: Streptococcus; experiment: Group A Streptococcus viability loss, dose response, counter-screen for streptokinase expression inhibitor project, luminescence, BacTiterGlo (AID 1915); format: functional, organism-based; settings: not given;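 further: potency for reduction of bacterial viability or growth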

Row | SMILES | EC50
22 | CSc1cccc(-c2nnc(NC(=O)c3cccc(N4C(=O)CCC4=O)c3)o2)c1 | 131 µM (active)
23 | CCOC(=O)c1cnn(-c2nc(-c3ccccc3F)cs2)c1C(F)(F)F | 23.8 µM (active)
24 | COC(=O)c1cc(-c2cccc(OC)c2)c2c(=O)[nH]c(=O)n(C)c2n1 | 11.7 µM (active)
25 | CC(C)Nc1nc(NC(C)C)nc(N(C)N)n1 | > 150 µM (not active)
26 | Cc1ccccc1C(=O)Nc1scc(-c2ccc(Br)cc2)c1C(=O)O | 7.36 µM (active)
27 | CCc1ccccc1NC(=O)NNS(=O)(=O)c1cc(C)ccc1C | > 150 µM (not active)

biological target: T1, Streptokinase A (Streptococcus pyogenes serotype M1, UniProt P10520); experiment: S. pyogenes streptokinase expression inhibitors, potency, dose response, plasminogen activation absorbance, OD405 (AID 1914); format: functional, Streptococcus pyogenes M1 GAS; settings: not given;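 further: secreted streptokinase activity via plasminogen activation per viability signal from cell pellet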
T1 sequence (P10520 whole entry): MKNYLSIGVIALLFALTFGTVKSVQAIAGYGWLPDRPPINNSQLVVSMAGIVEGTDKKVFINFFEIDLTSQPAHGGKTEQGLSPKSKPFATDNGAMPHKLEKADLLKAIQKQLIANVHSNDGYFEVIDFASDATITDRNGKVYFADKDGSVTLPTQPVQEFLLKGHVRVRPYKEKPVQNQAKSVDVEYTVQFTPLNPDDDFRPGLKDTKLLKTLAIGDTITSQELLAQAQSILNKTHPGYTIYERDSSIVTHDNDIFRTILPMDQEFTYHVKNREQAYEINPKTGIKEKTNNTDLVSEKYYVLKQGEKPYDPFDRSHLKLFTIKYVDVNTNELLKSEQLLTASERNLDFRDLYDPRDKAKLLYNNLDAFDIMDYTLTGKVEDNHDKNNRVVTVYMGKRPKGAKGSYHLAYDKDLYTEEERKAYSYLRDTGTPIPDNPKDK

Row | SMILES | EC50
28 | CSc1cccc(-c2nnc(NC(=O)c3cccc(N4C(=O)CCC4=O)c3)o2)c1 | > 150 µM (not active)
29 | CCOC(=O)c1cnn(-c2nc(-c3ccccc3F)cs2)c1C(F)(F)F | 34.3 µM (active)
30 | COC(=O)c1cc(-c2cccc(OC)c2)c2c(=O)[nH]c(=O)n(C)c2n1 | > 150 µM (not active)
31 | CC(C)Nc1nc(NC(C)C)nc(N(C)N)n1 | > 150 µM (not active)
32 | Cc1ccccc1C(=O)Nc1scc(-c2ccc(Br)cc2)c1C(=O)O | > 150 µM (not active)
33 | CCc1ccccc1NC(=O)NNS(=O)(=O)c1cc(C)ccc1C | 4.21 µM (active)

tested on: not listed separately; experiment: HEp-2 cell cytotoxicity, dose response, cytotoxicity control for RSV inhibitor project, HTS (AID 2410); format: functional; settings: human respiratory syncytial virus

Row | SMILES | CC50
34 | Cc1cc2cc3c(cc2nc1SCC(=O)N1c2ccccc2CC1C)OCO3 (stereo not drawn) | 34 µM (active)
35 | O=C(Nc1ccc(/C=C/c2nc3ccccc3o2)cc1)c1c(F)cccc1F | > 50 µM (active)
36 | O=C(Nc1ccc(-c2csc(Nc3ccccc3)n2)cc1)c1cc([N+](=O)[O-])cc(C(F)(F)F)c1 | 14.6 µM (active)
37 | Cc1ccc2nc(NC(=O)c3ccc(NS(=O)(=O)c4cccs4)cc3)sc2c1 | 25.1 µM (active)
38 | COc1ccc(-c2cc(C(F)(F)F)n3ncc(C(=O)N(C)Cc4ccccc4)c3n2)cc1 | 32.9 µM (active)
39 | O=C(Nc1ccc(N2CCCC2)c(Cl)c1)c1ccc(Br)o1 | 30.6 µM (active)
40 | CCOC(=O)c1c(C)[nH]c(C(=O)N2CCc3cc(OC)c(OC)cc3C2)c1C | 34.8 µM (active)
41 | CCOC(=O)C1CCCN(c2nc3ccccc3nc2C(C#N)C(=O)OCCOC)C1 (stereo not drawn) | 41.7 µM (active)
42 | C=CC/N=C1\S/C(=C\c2ccc(Cl)cc2)C(=O)N1CC=C | 44.3 µM (active)

tested on: not listed separately; experiment: cytotoxicity toward NIH3T3 fibroblasts, dose response, counter-screen, cell-based, ATP luminescence, mouse fibroblasts (AID 2010); format: functional; settings: not given;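 further: cells exposed to compound for about 90 hours before reading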

Row | SMILES | EC50
43 | O=C(Nc1ccc(N2CCCC2)c(Cl)c1)c1ccc(Br)o1 | > 60 µM (not active)

tested on: not listed separately; experiment: inhibitors of intracellular T. cruzi replication, confirmation, NIH3T3 host cells, beta-gal luminescence (AID 2044); format: functional, cell-based; settings: not given;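 further: intracellular parasites grown in NIH/3T3 mouse fibroblasts as host cells; luminescent beta-galactosidase reporter signal from transgenic T. cruzi replicating inside host cells; inhibitors lower the luminescence signal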

Row | SMILES | EC50
44 | O=C(Nc1ccc(N2CCCC2)c(Cl)c1)c1ccc(Br)o1 | 1.63 µM (active)

biological target: T2, Cytochrome P450 1A2 (Homo sapiens, UniProt P05177); settings: not given;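 further: PubChem cytochrome P450 panel assay, CYP1A2 panel member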
T2 sequence (P05177 whole entry): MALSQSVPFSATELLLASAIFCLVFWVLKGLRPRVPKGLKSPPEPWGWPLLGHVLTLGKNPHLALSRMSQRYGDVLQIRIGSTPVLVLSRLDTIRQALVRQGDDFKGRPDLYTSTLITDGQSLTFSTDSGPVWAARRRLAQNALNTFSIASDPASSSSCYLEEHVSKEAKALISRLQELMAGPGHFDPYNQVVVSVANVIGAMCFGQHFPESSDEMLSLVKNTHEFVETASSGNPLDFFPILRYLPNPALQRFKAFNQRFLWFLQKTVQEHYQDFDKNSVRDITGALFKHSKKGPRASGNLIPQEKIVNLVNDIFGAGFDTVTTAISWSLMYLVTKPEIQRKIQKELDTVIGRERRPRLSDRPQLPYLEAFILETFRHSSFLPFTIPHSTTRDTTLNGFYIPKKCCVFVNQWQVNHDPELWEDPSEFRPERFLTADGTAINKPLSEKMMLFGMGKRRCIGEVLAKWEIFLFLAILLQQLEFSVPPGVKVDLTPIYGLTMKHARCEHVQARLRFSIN

Row | SMILES | AC50
45 | Cc1nc2cnc(Oc3ccccc3)nc2n(CCC#N)c1=O | 20 µM (inconclusive)
46 | Ic1ccccc1CN[C@@H]1C2CCN(CC2)[C@H]1C(c1ccccc1)c1ccccc1 | 12.6 µM (inconclusive)
47 | COc1ccc(Oc2ncc3nc(-c4ccc(OC)cc4)c(=O)n(C)c3n2)cc1 | 3.16 µM (inconclusive)
48 | Cc1nc2ccccc2c(=O)n1NC(=O)c1ccccc1Cl | 15.8 µM (inconclusive)
